Source: patent US20210069295A1, “GALECTINS CONTROL MTOR IN RESPONSE TO ENDOMEMBRANE DAMAGE AND PROVIDE A MECHANISM AND TARGET FOR THE TREATMENT OF AUTOPHAGY-RELATED DISEASES” (STC. UNM, priority 2017, published 2021)

How the values were obtained:
[1] = tested on: mTOR; test: mTOR activity by immunoblotting of S6K1 (T389) and ULK1 (S757) phosphorylation in HEK293T cells; format: cell-based; details: HEK293T cells, full medium, 1 h
Method: (§1) (A) Dose-response analysis of mTOR activity in HEK293T cells treated with glycyl-L-phenylalanine 2-naphththylamide (GPN) in full medium for 1 h. mTOR activity was monitored by inununoblotting analysis of S6K1 (T389) and ULK1 (S757) phosphorylation (phosphorylated S6K (T389) and ULK1 (S757) relative to total S6K and ULK1, respectively). (B) Analysis of mTOR activity (as in A) after GPN washout. HEK293T cells were treated with 100 μM GPN for 1 h followed by 1 h washout in full medium. Data, means±SEM (n=3), **p<0.01, ANOVA. (C) Analysis of mTOR activity (as in A) in HEK293T cells treated with increasing doses of silica in full medium for 1 h. (D) HEK293T cells were treated with lysosomal damaging agents (LLOMe, Leu-Leu-OMe) for 1 h in full medium and status of acidified organelles assessed by quantifying LysoTracker Red DND-99 puncta using automated high-content imaging and analysis (HC). None-treated cells were as control (Ctrl). White masks, algorithm defined cell boundaries (primary objects); yellow masks, computer-identified LysoTracker Red puncta (target objects). Data, means±SEM, n≥3 independent experiments (500 primary objects counted per well; ≥5 wells/sample per each experiment), **p<0.01, ANOVA. (E) Analysis of mTOR activity in primary human macrophages treated with GPN. Human peripheral blood monocyte derived macrophages were treated with 100 μM GPN in full medium or starved in EBSS for 1 h, and mTOR activity measured as in A. None-treated cells were as control (Ctrl). (F) Quantification by HC of overlaps between mTOR and LAMP2 (representative images shown in FIG. S1D) in HeLa cells treated with lysosomal damaging agents for 1 h in full medium. Data, means±SEM, n≥3 independent experiments (500 primary objects counted per well; ≥5 wells/sample per each experiment) **p<0.01, ANOVA. (G) Immunofluorescence confocal microscopy visualization of mTOR localization relative to LAMP2-positive lysosomes. […] (H) Analysis of TFEB nuclear translocation in HeLa cells treated with 100 μM GPN in full medium for 1 h, and the nuclear translocation of TFEB was measured by HC (Nuclei, Hoechst 33342, blue pseudocolor; TFEB red fluorescence, Alexa-568). […] White masks, computer algorithm-defined cell boundaries (primary objects); pink masks, computer-identified nuclear TFEB based on the average intensity of Alexa-568 fluorescence. Data, means±SEM, n≥3 independent experiments (500 primary objects counted per well; ≥5 wells/sample per each experiment), **p<0.01, ANOVA. (I) HeLa cells were treated as indicated in full medium for 1 h, and LC3 puncta were quantified by HC. […] Data, means±SEM, n≥3 independent experiments (500 primary objects counted per well; ≥5 wells/sample per each experiment), **p<0.01, ANOVA. […]

[2] = tested on: mTOR; test: mTOR localization relative to LAMP2-positive lysosomes (HC and confocal microscopy); format: cell-based; details: HeLa cells
Method: as §1

[3] = tested on: TFEB; test: TFEB nuclear translocation by high-content microscopy in HeLa cells; format: cell-based; details: 1 h full medium
Method: (A) Dose-response analysis of mTOR activity in HEK293T cells treated with glycyl-L-phenylalanine 2-naphththylamide (GPN) in full medium for 1 h. mTOR activity was monitored by inununoblotting analysis of S6K1 (T389) and ULK1 (S757) phosphorylation (phosphorylated S6K (T389) and ULK1 (S757) relative to total S6K and ULK1, respectively). (B) Analysis of mTOR activity (as in A) after GPN washout. HEK293T cells were treated with 100 μM GPN for 1 h followed by 1 h washout in full medium. Data, means±SEM (n=3), **p<0.01, ANOVA. (C) Analysis of mTOR activity (as in A) in HEK293T cells treated with increasing doses of silica in full medium for 1 h. (D) HEK293T cells were treated with lysosomal damaging agents (LLOMe, Leu-Leu-OMe) for 1 h in full medium and status of acidified organelles assessed by quantifying LysoTracker Red DND-99 puncta using automated high-content imaging and analysis (HC). […] Data, means±SEM, n≥3 independent experiments (500 primary objects counted per well; ≥5 wells/sample per each experiment), **p<0.01, ANOVA. […] Human peripheral blood monocyte derived macrophages were treated with 100 μM GPN in full medium or starved in EBSS for 1 h, and mTOR activity measured as in A. None-treated cells were as control (Ctrl). […] Data, means±SEM, n≥3 independent experiments (500 primary objects counted per well; ≥5 wells/sample per each experiment) **p<0.01, ANOVA. […]

[4] = tested on: bone marrow-derived macrophages (BMMs); test: LysoTracker Red DND-99 staining in bone marrow-derived macrophages (BMMs); format: cell-based, murine; details: GPN 400 μM or LLOMe, 1 h

COC(=O)[C@H](CC(C)C)NC(=O)[C@@H](N)CC(C)C [LLOMe, Leu-Leu-OMe]
mTOR activity (phosphorylation of its substrates S6K1 and ULK1) [1]: caused inhibition of mTOR activity | mTOR localization after washout ([2]; 2 mM LLOMe 1 h followed by 1 h washout): relocalization of mTOR to lysosomes | mTOR localization (lysosomes vs cytosol, overlap with LAMP2) ([2]; 1 h full medium): translocated from lysosomes to the cytosol | TFEB nuclear translocation [3]: translocated to the nucleus from the cytoplasm | LysoTracker Red DND-99 staining in BMMs (lysosomal damage) [4]: reduced LysoTracker Red DND-99 staining
